As usually defined, the IC50 is the concentration that gives 50% inhibition. For orientation: EC50 means the concentration at which the effect is half-maximal.

Experimental findings from article PMC12333026, “Versatile Imidazole Scaffold with Potent Activity against Multiple Apicomplexan Parasites” (ACS Infectious Diseases, 2025) are described below.

Like-named read-outs stand apart in the source and are kept apart here.

One test deals with T1, PfCDPK1 (Plasmodium falciparum, UniProt P62344).
T1 construct: made in house
The test can be described thus: CDPK enzyme activity assay, PfCDPK1. It is filed as biochemical, P. falciparum. On the procedure:
(§1) Recombinant expression of PfCDPK1, PfCDPK4, TgCDPK1 WT, TgCDPK1-G128M, CpCDPK1 and CpCDPK1-G152 M were purified as previously described. […] These reactions were performed in a buffer composed of 1 mM EGTA (pH 7.2), 10 mM MgCl2, 20 mM HEPES pH 7.5 (KOH), 0.1% BSA. The reactions were initiated with addition of 10 μM ATP and 2 mM CaCl2 as enzyme activation reagent. Reaction plates were incubated for 90 min with 90 rpm agitation at 30 °C. […] KinaseGlo (Promega) luminescence-based assay in which luminescence is inversely related to kinase activity and […] was used as previously described.

Test [1] relates to P. falciparum 3D7 (WT) asexual stage parasites. In words: Growth inhibition assay, asexual stage parasites, WT 3D7. Format: cell-based. As to conditions: Plasmodium falciparum; 3D7 asexual stage parasites, 72 h; mean ± SD, n = 1–2. How it is done: (§2) lines were maintained with O+ human erythrocytes (BioIVT). WT 3D7A10 and T618Q parasites were kind gifts from Dr. David Fidock (Columbia University) and Dr. David Baker (London School of Tropical Medicine and Hygiene), respectively. Growth inhibition assays were performed as previously described. Parasites were grown in RPMI 1640 medium (Sigma-Aldrich, St. Louis, MO, U.S.A.) supplemented with 5 mg/mL Albumax (Gibco), 50 μg/mL hypoxanthine (Sigma-Aldrich), 2 mg/mL Na2CO3 (Sigma-Aldrich), 25 mM HEPES, and 50 μg/mL gentamicin (Gibco). The growth assay was initiated with cultures with >80% ring stage parasites, diluted to a parasitemia of 0.4% and a hematocrit of 1%. Parasites were transferred to a 96-well plate with test compounds, vehicle, or DHA as positive control, and maintained for 72 h in 5% CO2, 5% O2, and 90% N2 in a humidified chamber. Parasite viability at 72 h was determined by addition of SYBR Green I nucleic acid stain (Thermo Fisher Scientific, S7563) and Mitotracker Deep Red (Fisher M422426) followed by flow cytometry on a BD FACSVerse using BD FACSuite software. Data acquired were analyzed using Flowjo software. EC50 values were derived by nonlinear regression in Graph Pad Prism 7.

A further test concerns the target T2, PfCDPK4 (Plasmodium falciparum, UniProt Q8IBS5).
T2 construct: made in house
The test can be described thus: CDPK enzyme activity assay, PfCDPK4. Format: biochemical, P. falciparum. On the procedure: as §1

Test [2] relates to T. gondii tachyzoites expressing TgCDPK1 G128M; TgMAPKL-1 L162Q. The test can be described thus: Proliferation EC50, host fibroblast nuclei count, double mutant. The settings on record: for EC50: Toxoplasma gondii, Fibroblast, read-out: T. gondii EC50 (±SD) CDPK1 G128M, MAPKL1 L162Q. Format: cell-based. How it is done:
(§3) Human Foreskin Fibroblasts (HFF) were cultured in DMEM, with D-glucose (4.5 g/L), L-glutamine, and sodium pyruvate (110 mg/L) (Gibco) that were further supplemented with 10% Fetal Clone 1 serum (FCS)(HyClone), 50 U/mL penicillin (Gibco), […] streptomycin (Gibco), and 1× GlutaMax (Gibco). HFF cells were cultured in T25 flasks (Corning) in a humidified incubator at 37 °C and 5% CO2. For culture, media was replaced with DMEM, as described above, with 1% FCS. Mutant strains were created as described in.
(§4) Presence of desired mutations in parasite lines, TgCDPK1^G128M, TgCDPK1^G128M + TgMAPKL1^L162Q and […] was verified through sequencing. Compounds were dissolved in DMSO and serially diluted 4-fold across the first 10 wells of a 96 well plate, with the highest drug concentration in the first column being 25 μM. The strain of was then added to the first 11 columns of the 96-well plate at a density of 4000 parasites per well. The 11th column contained no compounds, and the 12th column contained no parasites and no compound. After 5 days of incubation at 37 °C and 5% CO2, cells were washed with PBS and fixed with 4% PFA in PBS (Thermo Fisher Scientific, Waltham, MA, USA). After fixing, cells were washed three times with PBS and stained with 300 nM DAPI in PBS before being washed again three times with PBS.
(§5) Images were acquired in an ImageXpress Pico Automated Cell Imaging System (Molecular Devices, San Jose, CA, USA) with a 4× objective using UV fluorescence. Following imaging, ImageXpress software was used to count objects with a fluorescence intensity ≥8 and a size of 12–30 μm, giving a total count of host cell nuclei for each well. EC50 were determined based on the number of remaining fibroblast nuclei using a nonlinear regression analysis with GraphPad Prism software version 10.0.0 for Windows, GraphPad Software, Boston, Massachusetts USA. Each compound was tested in ≥3 experiments in quadruplicate rows.

For test [3], the system named is T. gondii tachyzoites expressing TgCDPK1 G128M. In words: Proliferation EC50, host fibroblast nuclei count, TgCDPK1 G128M mutant. Format: cell-based. As to conditions: for EC50 for G128M parasites higher compared to the parental strain: TgCDPK1 G128M versus parental; for EC50: Toxoplasma gondii, Fibroblast, read-out: T. gondii EC50 (±SD) CDPK1 G128M. How it is done: as §3, §4, §5

Test [4] concerns T. gondii RH strain expressing β-galactosidase, parental. The test can be described thus: Proliferation EC50, β-galactosidase readout, parental strain. Format: cell-based. As to conditions: Toxoplasma gondii, 72 h, read-out: T. gondii EC50 (±SD) CONTROL.
Test [5] concerns P. falciparum T618Q asexual stage parasites. The test can be described thus: Growth inhibition assay, asexual stage parasites expressing PfPKG T618Q. Format: cell-based. The settings on record: Plasmodium falciparum, 72 h, read-out: P. falciparum EC50 (±SD) T618Q. On the procedure:
as §2

The target of another test is T3, TgCDPK1 WT (Toxoplasma gondii, UniProt Q9BJF5).
T3 sequence (Q9BJF5 1-507): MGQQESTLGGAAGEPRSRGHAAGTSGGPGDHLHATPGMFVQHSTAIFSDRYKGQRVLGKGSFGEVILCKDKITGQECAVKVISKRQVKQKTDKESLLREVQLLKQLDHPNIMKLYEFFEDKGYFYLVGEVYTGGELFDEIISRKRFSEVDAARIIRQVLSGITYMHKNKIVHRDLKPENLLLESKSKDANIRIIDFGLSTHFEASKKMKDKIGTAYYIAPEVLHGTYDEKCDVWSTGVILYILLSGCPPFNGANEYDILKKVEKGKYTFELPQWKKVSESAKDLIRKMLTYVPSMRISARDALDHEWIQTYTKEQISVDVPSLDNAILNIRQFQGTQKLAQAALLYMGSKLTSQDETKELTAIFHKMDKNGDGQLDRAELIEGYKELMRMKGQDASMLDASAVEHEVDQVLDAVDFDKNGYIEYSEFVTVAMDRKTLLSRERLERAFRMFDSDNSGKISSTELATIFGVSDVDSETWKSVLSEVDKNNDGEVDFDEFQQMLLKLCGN
The test can be described thus: biochemical. How it is done: as §1

The next test has as its target T4, TgCDPK1-G128M (Toxoplasma gondii, UniProt Q9BJF5, G128M).
T4 construct: made in house
The test can be described thus: CDPK enzyme activity assay, TgCDPK1 G128M. Format: biochemical, T. gondii. The settings on record: for TgCDPK1 G128M mutant enzyme less sensitive: G128M versus WT enzyme. On the procedure: as §1

T4 sequence (Q9BJF5 whole entry G128M): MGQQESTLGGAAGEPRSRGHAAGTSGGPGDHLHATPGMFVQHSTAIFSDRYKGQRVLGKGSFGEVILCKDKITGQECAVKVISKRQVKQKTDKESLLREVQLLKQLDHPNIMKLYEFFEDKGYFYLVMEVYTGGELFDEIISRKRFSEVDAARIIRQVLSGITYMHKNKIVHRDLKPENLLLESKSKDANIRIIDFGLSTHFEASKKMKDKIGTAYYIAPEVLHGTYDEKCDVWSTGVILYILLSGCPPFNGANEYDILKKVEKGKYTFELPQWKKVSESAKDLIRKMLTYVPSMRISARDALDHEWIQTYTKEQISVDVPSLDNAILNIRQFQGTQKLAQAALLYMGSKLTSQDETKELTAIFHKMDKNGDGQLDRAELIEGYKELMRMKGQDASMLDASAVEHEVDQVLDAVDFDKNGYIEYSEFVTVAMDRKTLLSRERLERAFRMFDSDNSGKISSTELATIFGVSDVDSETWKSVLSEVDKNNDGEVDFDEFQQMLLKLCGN
T1 sequence (P62344 whole entry): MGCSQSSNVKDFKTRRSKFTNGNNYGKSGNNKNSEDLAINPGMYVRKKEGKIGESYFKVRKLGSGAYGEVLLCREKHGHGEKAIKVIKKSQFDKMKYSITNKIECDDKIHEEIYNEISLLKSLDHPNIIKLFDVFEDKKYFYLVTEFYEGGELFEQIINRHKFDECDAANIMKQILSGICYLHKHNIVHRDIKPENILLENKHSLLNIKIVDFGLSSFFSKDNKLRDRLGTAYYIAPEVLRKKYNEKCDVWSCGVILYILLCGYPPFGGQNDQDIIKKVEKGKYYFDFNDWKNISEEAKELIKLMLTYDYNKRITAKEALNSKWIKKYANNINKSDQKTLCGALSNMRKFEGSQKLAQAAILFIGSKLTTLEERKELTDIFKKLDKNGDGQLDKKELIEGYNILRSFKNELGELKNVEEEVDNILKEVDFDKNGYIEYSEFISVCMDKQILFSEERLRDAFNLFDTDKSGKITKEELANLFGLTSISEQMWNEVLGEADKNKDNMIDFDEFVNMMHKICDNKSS
T2 sequence (Q8IBS5 whole entry): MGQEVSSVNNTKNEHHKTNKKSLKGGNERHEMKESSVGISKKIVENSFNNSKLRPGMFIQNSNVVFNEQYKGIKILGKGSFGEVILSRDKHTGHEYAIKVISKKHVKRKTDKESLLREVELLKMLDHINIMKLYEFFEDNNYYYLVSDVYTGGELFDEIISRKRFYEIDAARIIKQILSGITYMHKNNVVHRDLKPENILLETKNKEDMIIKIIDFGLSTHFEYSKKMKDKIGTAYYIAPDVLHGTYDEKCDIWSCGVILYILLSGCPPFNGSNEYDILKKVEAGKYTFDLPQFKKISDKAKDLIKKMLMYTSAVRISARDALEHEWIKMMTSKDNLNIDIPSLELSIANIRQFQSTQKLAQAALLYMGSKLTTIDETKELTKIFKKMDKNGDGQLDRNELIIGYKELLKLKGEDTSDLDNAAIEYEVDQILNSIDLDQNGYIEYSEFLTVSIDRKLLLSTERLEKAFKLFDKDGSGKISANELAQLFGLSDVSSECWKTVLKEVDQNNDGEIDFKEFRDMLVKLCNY

In the case of `O=C(c1nccs1)N1CC[C@@H](Nc2nccc(-n3cc(C4CC4)nc3-c3cccc(Cl)c3)n2)C1` [(R)-RY-1-185], the IC50 on PfCDPK1 (recombinant enzyme, mean ± SD, n = 2–3 experiments, read-out: enzyme IC50 (±SD) PfCDPK1 WT) is 6.69 µM; against PfCDPK4 it was 2.21 µM; on TgCDPK1 WT it was 0.06 µM; against TgCDPK1-G128M it was greater than 30 µM. Further, the concentration giving a half-maximal response (EC50) amounted to 6.5 µM in test [1]; 1.21 µM in test [2]; 0.3 µM in test [3]; 0.12 µM in [4]; 10.1 µM in test [5]. Further, the “increase in EC50 against double mutant TgCDPK1 G128M; TgMAPKL-1 L162Q versus parental control” value in test [2] worked out at 9 fold. The “EC50 for G128M parasites higher compared to the parental strain” value in [3] is on record as 1.8 fold. Further, at TgCDPK1-G128M, the “TgCDPK1 G128M mutant enzyme less sensitive” value is reported as no less than 600 fold.

`O=C(c1nccs1)N1CC[C@@H](Nc2nccc(-n3cc(C4CC4)nc3-c3ccccc3)n2)C1` [(R)-RY-1-165]: the IC50 is 10.1 µM at PfCDPK1, 1.7 µM on PfCDPK4, 0.05 µM against TgCDPK1 WT and greater than 30 µM on TgCDPK1-G128M. Moreover, the concentration giving a half-maximal response (EC50) in test [1] came out at 11 µM; in [2] it was 1.57 µM; in test [3], 1.53 µM; in test [4], 0.53 µM; in test [5] it was 13.4 µM. In addition, the “EC50 for G128M parasites higher compared to the parental strain” value in test [3] came to 1.7 fold. Further, the “IC50 for TgCDPK1 lower than for PfCDPK4” value against TgCDPK1 WT (TgCDPK1 versus PfCDPK4, 90 min) was “over 30 fold”. The “TgCDPK1 G128M mutant enzyme less sensitive” value at TgCDPK1-G128M is reported as “at least 500 fold”.
